This note sets out measurements from patent US20200390764A1, “PHARMACEUTICAL FORMULATIONS, PROCESSES FOR PREPARATION, AND METHODS OF USE” (Sunesis Pharmaceuticals, Inc., priority 2017, published 2020).

pEC50: −log10 of the molar value. In brackets after ≈: the same amount, converted by molar mass. A value given as a limit tells only on which side of the number the result lay.

The subject of data set [1] is cell lines derived from hematologic cancers. Kind of data set: Apoptosis induction in cancer cell lines. It is filed as cell-based. The settings on record: after 24 hours. From the text:
(§1) The compounds bind deep in the adaptive (allosteric) pocket, causing a distortion in the N-terminal domain thereby perturbing the PIF-pocket and thus negatively modulating PI-independent substrate binding. […] Anti-proliferative activity correlated with pathway modulation assessed by inhibition of phosphorylation of PDK1, RSK2, and AKT.

Data set [2] is described as follows: Oral pharmacokinetics in mice. Type of data set: in vivo. Conditions: for Tmax / bioavailability: mouse, in vivo; for bioavailability: read-out: oral bioavailability % F.
Data set [3] concerns cell lines derived from hematologic cancers. Kind of data set: Anti-proliferative activity in a panel of hematologic cancer cell lines. It is filed as cell-based. Conditions: panel of more than 20 cell lines: AML, multiple myeloma, DLBCL, Mantle cell lymphoma.
Text: as §1

Data set [4] concerns phosphorylation of PDK1, RSK2, and AKT. Kind of data set: Pathway modulation in cells: inhibition of phosphorylation. Type of data set: cell-based.
Text: as §1

A further data set concerns MV4-11 xenografts. Kind of data set: In vivo pathway modulation in MV4-11 xenografts. The settings on record: 4 hours and 24 hours after a single oral dose, MV4-11 xenografts in mice. The protocol: Pathway modulation was assessed in vivo using MV4-11 xenografts in mice. […] Efficacy was assessed by 21-day dosing in MV4-11 xenografts.
The target in another data set is T1, PDK1 (Homo sapiens, UniProt O15530).
T1 sequence (O15530 1-556): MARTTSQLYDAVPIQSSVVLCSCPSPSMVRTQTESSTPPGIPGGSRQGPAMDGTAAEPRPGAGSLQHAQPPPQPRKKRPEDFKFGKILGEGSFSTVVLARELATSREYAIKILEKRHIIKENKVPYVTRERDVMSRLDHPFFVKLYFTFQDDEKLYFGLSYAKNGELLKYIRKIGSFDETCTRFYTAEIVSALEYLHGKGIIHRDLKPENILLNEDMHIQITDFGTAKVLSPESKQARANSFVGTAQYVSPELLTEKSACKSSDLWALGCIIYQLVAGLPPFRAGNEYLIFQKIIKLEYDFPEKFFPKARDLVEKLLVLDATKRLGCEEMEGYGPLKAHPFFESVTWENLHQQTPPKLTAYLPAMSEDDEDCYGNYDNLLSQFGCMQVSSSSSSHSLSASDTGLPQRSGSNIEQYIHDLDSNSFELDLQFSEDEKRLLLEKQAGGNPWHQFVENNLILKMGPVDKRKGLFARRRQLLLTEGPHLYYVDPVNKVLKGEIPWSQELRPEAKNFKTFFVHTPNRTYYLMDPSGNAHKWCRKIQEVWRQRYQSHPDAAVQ
Kind of data set: PDK1 biochemical potency (binding of the inactive conformation). The settings on record: compared to the PDK1 inhibitor GSK2334470.
Text: as §1

For data set [5], the system named is cell lines derived from hematologic cancers. Kind of data set: 72-hour viability assays. It is filed as cell-based.
Text: as §1

The next data set can be described thus: Aqueous solubility. It is filed as physicochemical. From the text:
The present invention provides a process for the preparation of a pharmaceutical composition comprising active compounds as described herein, with improved absorption. […] According to the process of the present invention, it is possible to provide, from an active compound, a formulation in which the dissolution rate and oral bioavailability of the drug are high. Furthermore, the solid dispersion extrudates of the present invention have good stability at room temperature.
To overcome the inherent hurdles posed by this class of drugs, three alternative formulation approaches were screened: lipid-based formulation, nano-suspension, and solid dispersion via hot melt extrusion (HME).

A word on the Tmax: it is the time from dosing to the highest level. As a reminder, the bioavailability is dose-corrected exposure relative to a reference, in per cent. The pEC50 is −log10 of the EC50, conventionally taken in molar units. The low end stands for a high EC50, the high end for a low EC50. Consider `CNc1n[nH]c2ncc(-c3ccc(CNc4ncc(C#N)nc4C(=O)N[C@@H](C)c4ccc(F)c(F)c4)cc3)cc12` [Compound 2, 6-Cyano-3-[4-(3-methylamino-1H-pyrazolo[3,4-b]pyridin-5-yl)-benzylamino]-pyrazine-2-carboxylic acid [1-(3,4-difluoro-phenyl)-ethyl]-amide], for which the apoptosis result in data set [1] was “substantial apoptosis”. Also, in data set [2], the half-life result is reported as “long half-life”, the Tmax lay within 4 to 8 h and the bioavailability was over 40%. This compound also gave a pEC50 in data set [3] of 6.05 to 8.52. Moreover, the “inhibition of PDK1 phosphorylation, fold more after 24 hours than 4 hours” value in data set [4] (24 hours vs 4 hours) is listed as 2-5 fold. The “fold more potent than GSK2334470 at inhibiting PDK1 and RSK2 phosphorylation” value in data set [4] (all cell lines tested) is given as 10- to 30 fold. The “pathway modulation in vivo” value with MV4-11 xenografts is “Potent pathway modulation”. Also, the “biochemical potency compared to GSK2334470” value on PDK1 was “comparable biochemical potency”. Further, the “fold more potent than GSK2334470 in viability assays” value in data set [5] is “at least 10 fold”.
The term solubility denotes how much of the substance goes into solution per volume. A high value points to a readily soluble substance. Consider `C[C@H](NC(=O)c1nc(C#N)cnc1NCc1ccc(-c2cnc3[nH]nc(N)c3n2)cc1)c1ccc(F)c(F)c1` (stereo in doubt) [Compound 1, 3-[4-(3-Amino-1H-pyrazolo[3,4-b]pyrazin-5-yl)-benzylamino]-6-cyano-pyrazine-2-carboxylic acid [1-(3,4-difluoro-phenyl)-ethyl]-amide], for which, in data set [2], the half-life result is recorded as “long half-life”, the Tmax fell in the range of 4 to 8 h and the bioavailability was over 40%. Moreover, in the data set with MV4-11 xenografts, the “pathway modulation in vivo” value was “Potent pathway modulation”. Besides, the solubility in the data set “Aqueous solubility” (aqueous buffer, over the physiological pH range) was under 0.1 µg/mL. In “Aqueous solubility” (aqueous medium (not specified further)), the solubility was 0.1 µg/mL (≈ 0.19 µM).
